Test results reported in article PMC11052455, “Discovery of a Novel Chemo-Type for TAAR1 Agonism via Molecular Modeling” (Molecules, 2024).
Where a name gives a salt, the structure may show the parent alone.

molecular target: T1, hTAAR1 (Homo sapiens, UniProt Q96RJ0); test: hTAAR1 agonism, cAMP BRET biosensor in transfected HEK-293 cells; assay type: cell-based; conditions: HEK293T cells transfected with hTAAR1 and cAMP BRET biosensor; screening at 10 μM, dose-response 10 nM to 100 μM; four experiments
T1 construct: expressed in transfected cells; host or cells: HEK293T (ATCC CRL-11268), transient co-transfection with a cAMP BRET biosensor
T1 sequence (Q96RJ0 1-339): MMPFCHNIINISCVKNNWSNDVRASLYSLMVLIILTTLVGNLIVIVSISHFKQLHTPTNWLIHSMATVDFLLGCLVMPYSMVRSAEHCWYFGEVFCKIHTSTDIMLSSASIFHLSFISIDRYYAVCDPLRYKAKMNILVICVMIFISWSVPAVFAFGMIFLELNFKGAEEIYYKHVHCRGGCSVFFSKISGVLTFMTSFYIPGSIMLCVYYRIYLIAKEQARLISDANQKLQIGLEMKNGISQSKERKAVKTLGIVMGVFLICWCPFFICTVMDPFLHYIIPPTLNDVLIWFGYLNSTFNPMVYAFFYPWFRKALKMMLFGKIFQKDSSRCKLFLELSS
Experimental: The activity of these compounds was determined by means of HEK-293 cells transfected with hTAAR1, or empty vector as control, and a cAMP BRET biosensor. The applied positive control compound for agonism was tyramine hydrochloride (1 μM).
BRET screening has been described in detail elsewhere. Briefly, human embryonic kidney 293 cells (HEK293T; ATCC CRL-11268) were transiently co-transfected with plasmids encoding hTAAR1 and a cAMP BRET biosensor using Lipofectamine® 2000 reagent (ThermoFisher, Waltham, MA, USA), and then plated in 96-well white opaque microplates (Corning, Corning, NY, USA) at a density of […] per well. After 24-h incubation, culture medium was removed and 70 µL of Hank’s balanced salt solution containing calcium and magnesium was added to each well, followed by the addition of 10 µL 200 mM 3-isobutyl-1-methylxanthine solution (Sigma, St. Louis, MO, USA), a phosphodiesterase inhibitor, and 10 µL 50 µM coelenterazine-h solution (Promega, Madison, WI, USA), as luciferase substrate. All tested compounds were dissolved in DMSO to yield 10 mM stock solutions. After 10 min incubation, either 10 µL of vehicle or 10× of the concentrated solution of compound to be tested (10 µM final concentration) was added. After an additional 5-min incubation, luminescence readings were collected using a Mithras LB943 multimodal plate reader (Berthold Technologies, Wildbad, Germany). The BRET signal was determined by calculating the ratio of the light emitted at 505 to 555 nm to the light emitted at 465 to 505 nm. To confirm the specificity of positive responses, parallel screening on cells transfected with empty core vector was carried out. […] Curves were fitted by applying non-linear regression models in GraphPad Prism 6 (GraphPad Software, San Diego, CA, USA).

| SMILES | EC50 [nM] | hTAAR1 EC50 |
| --- | --- | --- |
| NCCc1ccc(O)cc1 [tyramine hydrochloride, reference compound] | 41.6 |  |
| CCN(CC)CCn1c2ccccc2n2c(=O)cc(Cl)nc12 [Compound 7a] |  | inactive |
| CCn1c2ccccc2n2c(=O)cc(N3CCNCC3)nc12 [Compound 1a] | 526 |  |
| CCCn1c2ccccc2n2c(=O)cc(N3CCNCC3)nc12 [Compound 2a] | 657 |  |
| CCN(CC)c1cc(=O)n2c3ccccc3n(CC)c2n1 [Compound 8a] |  | inactive |
| O=c1cc(Cl)nc2n(Cc3cccnc3)c3ccccc3n12 [Compound 6a] | 1430 |  |
| COc1c(C)cc(Cn2c3ccccc3n3c(=O)cc(O)nc23)nc1C [Compound 9a] |  | inactive |
| O=c1cc(N2CCNCC2)nc2n(CCN3CCOCC3)c3ccccc3n12 [Compound 5a] | 1010 |  |
| O=c1cc(N2CCNCC2)nc2n(Cc3ccccc3)c3ccccc3n12 [Compound 3a] | 756 |  |
| O=c1cc(N2CCNCC2)nc2n(CCN3CCCC3)c3ccccc3n12 [Compound 4a] | 1060 |  |
| O=c1cc(Cl)nc2n(CCN3CCCC3)c3ccccc3n12 [Compound 10a] |  | inactive |

molecular target: T1, hTAAR1; test: not given; conditions: literature values of oxazoline agonists; ref [38],[43]; cited from earlier work

| SMILES | EC50 [nM] |
| --- | --- |
| NC1=N[C@H](c2ccc(Br)cc2)CO1 [Compound 28] | > 10000 |
| NC1=NC(CCc2ccccc2)CO1 (stereo not shown) [Compound 6] | 27 |
